# Measurements from PMC9181698 (International Journal of Molecular Sciences, 2022).
# “Also recorded” adds a separate entry of the source. Residues, ends and D or L forms follow the SMILES beside them.
# Experiments:
# neutrophil elastase [1] = target: T1, neutrophil elastase (Homo sapiens, UniProt P08246); type: in vitro ADME; conditions: neutrophil elastase 5.5 µg/mL in Tris buffer 0.1 M + NaCl 0.5 M pH 7.8, enzyme pre-incubated 15 min at 37 °C, peptide 100 µM, 60 min, LC-MS (Figure 4C,D)
# T1 construct: purchased Abcam
# T1 sequence (P08246 30-267): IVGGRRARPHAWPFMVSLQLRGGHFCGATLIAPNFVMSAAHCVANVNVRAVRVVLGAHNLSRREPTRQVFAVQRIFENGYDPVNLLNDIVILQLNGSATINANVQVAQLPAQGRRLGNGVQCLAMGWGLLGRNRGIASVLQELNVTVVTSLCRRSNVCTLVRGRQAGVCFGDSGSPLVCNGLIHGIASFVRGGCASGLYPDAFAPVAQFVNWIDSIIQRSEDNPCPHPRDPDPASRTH
# Description: (§1) The enzymes (pepsin, Ph.Eur. grade, Carl Roth GmbH, and neutrophil elastase, 20–22 U/mg, Abcam, respectively) were diluted to 5.5 µg/mL in TFA 10 mM (pepsin) or Tris buffer 0.1 M + NaCl 0.5 M pH 7.8 (neutrophil elastase) and pre-incubated for 15 min at 37 °C. Peptides were added at 100 µM and incubated at 37 °C. A sample of 40 µL was taken after 60 min of incubation and the reaction was stopped by adding 5 µL sodium carbonate solution (1 M, pepsin) and 5 µL TFA (neutrophil elastase), respectively. After 10 min, 60 µL acetonitrile/water 50:50 containing 1% TFA were added, and the resulting solution was analyzed by LC-MS (conditions: Phenomenex Kinetex 2.6 μm C18 100 Å column, 50 × 2.1 mm, flow rate 0.55 mL/min, gradient of acetonitrile in H2O (both containing 0.1% TFA, 20–60% over 20 min)).
# pepsin [2] = target: T2, pepsin (Sus scrofa, UniProt P00791); type: in vitro ADME; conditions: pepsin 5.5 µg/mL in TFA 10 mM, enzyme pre-incubated 15 min at 37 °C, peptide 100 µM, 60 min, LC-MS (Figure 4A,B)
# T2 construct: purchased Carl Roth GmbH
# T2 sequence (P00791 60-385): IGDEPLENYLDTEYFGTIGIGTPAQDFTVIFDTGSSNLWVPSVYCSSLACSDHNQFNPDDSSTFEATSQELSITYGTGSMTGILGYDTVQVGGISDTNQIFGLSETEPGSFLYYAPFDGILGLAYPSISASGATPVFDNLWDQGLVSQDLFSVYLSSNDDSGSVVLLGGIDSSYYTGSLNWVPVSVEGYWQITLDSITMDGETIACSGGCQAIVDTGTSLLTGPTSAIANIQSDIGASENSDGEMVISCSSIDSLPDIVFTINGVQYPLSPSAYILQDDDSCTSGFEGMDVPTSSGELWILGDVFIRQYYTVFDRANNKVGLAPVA
# Description: as §1
# [3] = target: T3, ACE2–RBD interaction (wt SARS-CoV-2 spike protein RBD-Fc / His-tagged hACE2) (Severe acute respiratory syndrome coronavirus 2, UniProt P0DTC2); assay: SARS-CoV-2 spike protein RBD–hACE2 inhibition assay (ELISA), wt RBD; type: biochemical; conditions: individual helices of LCB1
# T3 construct: SARS-CoV-2 spike protein RBD-Fc fusion protein; Fc fusion; purchased Sino Biological
# pepsin [4] = assay: pepsin, Ph.Eur. grade, Carl Roth GmbH, diluted to 5.5 µg/mL in TFA 10 mM; conditions: 37 °C, up to 60 min
# neutrophil elastase [5] = assay: neutrophil elastase, 20–22 U/mg, Abcam, diluted to 5.5 µg/mL in Tris buffer 0.1 M + NaCl 0.5 M pH 7.8; conditions: 37 °C, up to 60 min
Molecule,Stability towards neutrophil elastase (in words) (neutrophil elastase [1]),Susceptibility to proteolytic degradation by pepsin (in words) (pepsin [2]),Inhibitory activity on the ACE2–RBD interaction (in words) [3],further results
CC[C@H](C)[C@H](NC(=O)[C@H](CC(C)C)NC(=O)[C@H](CC(=O)O)NC(=O)[C@H](CO)NC(=O)[C@@H](NC(=O)[C@H](CCCNC(=N)N)NC(=O)[C@H](CCSC)NC(=O)[C@H](CO)NC(=O)[C@H](C)NC(=O)[C@H](CCC(=O)O)NC(=O)[C@H](C)NC(=O)[C@H](Cc1c[nH]cn1)NC(=O)CNC(=O)[C@H](CC(C)C)NC(=O)[C@H](CCC(=O)O)NC(=O)[C@H](CC(=O)O)NC(=O)[C@H](CC(C)C)NC(=O)[C@H](CC(C)C)NC(=O)[C@H](CCCNC(=N)N)NC(=O)[C@H](CCSC)NC(=O)[C@@H](NC(=O)[C@H](CCC(=O)O)NC(=O)[C@H](Cc1ccc(O)cc1)NC(=O)[C@@H](NC(=O)[C@H](CCCCN)NC(=O)[C@H](CCC(N)=O)NC(=O)[C@H](CC(C)C)NC(=O)[C@@H](NC(=O)[C@H](Cc1c[nH]c2ccccc12)NC(=O)[C@H](CCC(=O)O)NC(=O)[C@H](CCCCN)NC(=O)[C@H](CC(=O)O)NC(=O)COCCOCCNC(=O)CCCC[C@@H]1SC[C@@H]2NC(=O)N[C@@H]21)[C@@H](C)CC)[C@@H](C)CC)[C@@H](C)CC)C(C)C)C(=O)N[C@@H](Cc1ccc(O)cc1)C(=O)N[C@@H](CCC(=O)O)C(=O)N[C@@H](Cc1ccccc1)C(N)=O [LW32.4],rapidly hydrolyzed,hydrolyzed only at position L31,,
CC[C@H](C)[C@H](NC(=O)[C@H](Cc1c[nH]c2ccccc12)NC(=O)[C@H](CCC(=O)O)NC(=O)[C@H](CCCCN)NC(=O)[C@H](CC(=O)O)NC(=O)COCCOCCNC(=O)CCCC[C@@H]1SC[C@@H]2NC(=O)N[C@@H]21)C(=O)N[C@@H](CC(C)C)C(=O)N[C@@H](CCC(N)=O)C(=O)N[C@@H](CCCCN)C(=O)N[C@H](C(=O)N[C@@H](Cc1ccc(O)cc1)C(=O)N[C@@H](CCC(=O)O)C(=O)N[C@H](C(=O)N[C@@H](CCSC)C(=O)N[C@@H](CCCNC(=N)N)C(=O)N[C@@H](CC(C)C)C(=O)N[C@@H](CC(C)C)C(=O)N[C@@H](CC(=O)O)C(=O)N[C@@H](CCC(=O)O)C(=O)N[C@@H](CC(C)C)C(N)=O)[C@@H](C)CC)[C@@H](C)CC [LW25.5] (HELM PEPTIDE1{[O=C1N[C@H]2[C@H](CS[C@H]2CCCCC(=O)[*:2])N1].[O=C(COCCOCCN[*:1])[*:2]].D.K.E.W.I.L.Q.K.I.Y.E.I.M.R.L.L.D.E.L.[am]}$$$$V2.0),,,completely inactive,
Biotin-Aoa-DKEWILQKIYEIMRLLDELGHAEASMRVSDLIYEF-NH2,,,,"cleaved bond (pepsin [4]): L31-I32, 60 min; cleaved bond (neutrophil elastase [5]): A-S, 60 min; also recorded: S-M, 60 min"
CC[C@H](C)[C@@H]1NC(=O)[C@H](CC(C)C)NC(=O)[C@H](CC(=O)O)NC(=O)[C@H](CO)NC(=O)[C@H](C(C)C)NC(=O)[C@H](CCCNC(=N)N)NC(=O)[C@H](CCSC)NC(=O)[C@H](CO)NC(=O)[C@H](C)NC(=O)[C@H](CCC(=O)O)NC(=O)[C@H](C)NC(=O)[C@H](Cc2c[nH]cn2)NC(=O)CNC(=O)[C@H](CC(C)C)NC(=O)[C@H](CCC(=O)O)NC(=O)[C@H](CC(=O)O)NC(=O)[C@H](CC(C)C)NC(=O)[C@H](CC(C)C)NC(=O)[C@H](CCCNC(=N)N)NC(=O)[C@H](CCSC)NC(=O)[C@H]([C@@H](C)CC)NC(=O)[C@H](CCC(=O)O)NC(=O)[C@H](Cc2ccc(O)cc2)NC(=O)[C@H]([C@@H](C)CC)NC(=O)[C@H](CCCCN)NC(=O)[C@H](CCC(N)=O)NC(=O)[C@H](CC(C)C)NC(=O)[C@H]([C@@H](C)CC)NC(=O)[C@H](Cc2c[nH]c3ccccc23)NC(=O)[C@H](CCC(=O)O)NC(=O)[C@@H](NC(=O)COCCOCCNC(=O)CCCC[C@@H]2SC[C@@H]3NC(=O)N[C@@H]32)CSSC[C@@H](C(N)=O)NC(=O)[C@H](CCCCN)NC(=O)[C@H](CCCCN)NC(=O)[C@H](CCSC)NC(=O)[C@H](Cc2ccccc2)NC(=O)[C@H](CCC(=O)O)NC(=O)[C@H](Cc2ccc(O)cc2)NC1=O [LW25.13],still largely intact,largely stable,,
Biotin-Aoa-[^3 CEWILQKIYEIMRLLDELGHAEASMRVSDLIYEFMKKC]-NH2,,,,not cleaved (pepsin [4]): largely stable towards pepsin for at least 60 min; not cleaved (neutrophil elastase [5]): still largely intact after 60 min exposure to the enzyme
CC[C@H](C)[C@H](NC(=O)[C@H](CC(C)C)NC(=O)[C@H](CC(=O)O)NC(=O)[C@H](CO)NC(=O)[C@@H](NC(=O)[C@H](CCCNC(=N)N)NC(=O)[C@H](CCSC)NC(=O)[C@H](CO)NC(=O)[C@H](C)NC(=O)[C@H](CCC(=O)O)NC(=O)[C@H](C)NC(=O)[C@H](Cc1c[nH]cn1)NC(=O)CNC(=O)COCCOCCNC(=O)CCCC[C@@H]1SC[C@@H]2NC(=O)N[C@@H]21)C(C)C)C(=O)N[C@@H](Cc1ccc(O)cc1)C(=O)N[C@@H](CCC(=O)O)C(=O)N[C@@H](Cc1ccccc1)C(=O)N[C@@H](CCSC)C(=O)N[C@@H](CCCCN)C(=O)N[C@@H](CCCCN)C(=O)NCC(N)=O [LW25.6] (HELM PEPTIDE1{[O=C1N[C@H]2[C@H](CS[C@H]2CCCCC(=O)[*:2])N1].[O=C(COCCOCCN[*:1])[*:2]].G.H.A.E.A.S.M.R.V.S.D.L.I.Y.E.F.M.K.K.G.[am]}$$$$V2.0),,,completely inactive,
